In PubChem BioAssay AID1259407 (Chemical Carcinogenesis Research Information System (CCRIS), 2018):
Activity calls are given as the source filed them. The rule behind the calls is not given here.

Test system: CCRIS mutagenicity, Ames/micronucleus/aberration tests
Test: CCRIS mutagenicity studies
Conditions: Test System: AMES SALMONELLA TYPHIMURIUM
[1] = Strain/Indicator: TA97, Metabolic Activation: NONE, Method: STANDARD PLATE
[2] = Strain/Indicator: TA98, Metabolic Activation: NONE, Method: STANDARD PLATE
[3] = Strain/Indicator: TA100, Metabolic Activation: NONE, Method: STANDARD PLATE
[4] = Strain/Indicator: TA1535, Metabolic Activation: NONE, Method: STANDARD PLATE
[5] = Strain/Indicator: TA102, Metabolic Activation: NONE, Method: STANDARD PLATE
[6] = Strain/Indicator: TA98, Metabolic Activation: RAT, LIVER, S-9, AROCLOR 1254, Method: STANDARD PLATE
[7] = Strain/Indicator: TA100, Metabolic Activation: RAT, LIVER, S-9, AROCLOR 1254, Method: STANDARD PLATE

O=C(Cn1c(=O)sc2ccccc21)OCc1ccccc1
mutagenic call [1]: inactive; negative | mutagenic call (Strain/Indicator: TA97, Metabolic Activation: RAT, LIVER, S-9, DELOR 103, Method: STANDARD PLATE): inactive; negative | mutagenic call [2]: inactive; negative | mutagenic call (Strain/Indicator: TA98, Metabolic Activation: RAT, LIVER, S-9, DELOR 103, Method: STANDARD PLATE): inactive; negative | mutagenic call [3]: inactive; negative | mutagenic call (Strain/Indicator: TA100, Metabolic Activation: RAT, LIVER, S-9, DELOR 103, Method: STANDARD PLATE): inactive; negative | mutagenic call [4]: inactive; negative | mutagenic call (Strain/Indicator: TA1535, Metabolic Activation: RAT, LIVER, S-9, DELOR 103, Method: STANDARD PLATE): inactive; negative | mutagenic call (Strain/Indicator: TA1538, Metabolic Activation: NONE, Method: STANDARD PLATE): inactive; negative | mutagenic call (Strain/Indicator: TA1538, Metabolic Activation: RAT, LIVER, S-9, DELOR 103, Method: STANDARD PLATE): inactive; negative

CC(C)(C)NC(=O)[C@H]1CC[C@H]2[C@@H]3CC=C4C=C(C(=O)O)CC[C@]4(C)[C@H]3CC[C@]12C
mutagenic call [1]: inactive; negative | mutagenic call (Strain/Indicator: TA97, Metabolic Activation: RAT LIVER S-9, AROCLOR 1254, Method: PREINCUBATION): inactive; negative | mutagenic call [2]: inactive; negative | mutagenic call (Strain/Indicator: TA98, Metabolic Activation: RAT LIVER S-9, AROCLOR 1254, Method: PREINCUBATION): inactive; negative | mutagenic call [3]: inactive; negative | mutagenic call (Strain/Indicator: TA100, Metabolic Activation: RAT LIVER S-9, AROCLOR 1254, Method: PREINCUBATION): inactive; negative | mutagenic call [5]: inactive; negative | mutagenic call (Strain/Indicator: TA102, Metabolic Activation: RAT LIVER S-9, AROCLOR 1254, Method: PREINCUBATION): inactive; negative

CN(C)CCN(C)N=O
mutagenic call (Strain/Indicator: TA1535, Metabolic Activation: HAMSTER, LIVER, S-9, Method: STANDARD PLATE): active; positive | mutagenic call (Strain/Indicator: TA1535, Metabolic Activation: RAT, LIVER, S-9, Method: STANDARD PLATE): inactive; negative

CC(O)C(=O)NCCO (stereo not drawn)
mutagenic call [6]: active; positive | mutagenic call (Strain/Indicator: TA1538, Metabolic Activation: RAT, LIVER, S-9, AROCLOR 1254, Method: STANDARD PLATE): active; positive

C[C@]12CC[C@H](OC(=O)Cc3ccc(N(CCCl)CCCl)cc3)C[C@@H]1CC[C@@H]1[C@@H]2CC[C@]2(C)NC(=O)CC[C@@H]12
mutagenic call [2]: inactive; negative | mutagenic call [6]: inactive; negative | mutagenic call [3]: active; positive | mutagenic call [7]: active; positive | mutagenic call [5]: active; positive | mutagenic call (Strain/Indicator: TA102, Metabolic Activation: RAT, LIVER, S-9, AROCLOR 1254, Method: STANDARD PLATE): active; positive | mutagenic call (Strain/Indicator: TA104, Metabolic Activation: NONE, Method: STANDARD PLATE): inactive; negative | mutagenic call (Strain/Indicator: TA104, Metabolic Activation: RAT, LIVER, S-9, AROCLOR 1254, Method: STANDARD PLATE): inactive; negative | mutagenic call [4]: active; positive | mutagenic call (Strain/Indicator: TA1535, Metabolic Activation: RAT, LIVER, S-9, AROCLOR 1254, Method: STANDARD PLATE): active; positive

O=C(c1ccccc1)[C@@H]1O[C@@H]1c1ccc(Br)cc1
mutagenic call [2]: inactive; negative | mutagenic call [6]: inactive; negative | mutagenic call [3]: inactive; negative | mutagenic call [7]: inactive; negative

CCCCOC(=O)/C=C\C(=O)OCCCC
mutagenic call (Strain/Indicator: TA97A, Metabolic Activation: NONE): inactive; negative | mutagenic call (Strain/Indicator: TA97A, Metabolic Activation: RAT, LIVER, S-9, AROCLOR 1254): inactive; negative | mutagenic call (Strain/Indicator: TA98, Metabolic Activation: NONE): inactive; negative | mutagenic call (Strain/Indicator: TA98, Metabolic Activation: RAT, LIVER, S-9, AROCLOR 1254): inactive; negative | mutagenic call (Strain/Indicator: TA100, Metabolic Activation: NONE): inactive; negative | mutagenic call (Strain/Indicator: TA100, Metabolic Activation: RAT, LIVER, S-9, AROCLOR 1254): inactive; negative | mutagenic call (Strain/Indicator: TA102, Metabolic Activation: NONE): inactive; negative | mutagenic call (Strain/Indicator: TA102, Metabolic Activation: RAT, LIVER, S-9, AROCLOR 1254): inactive; negative

COc1cc2c(c3oc(=O)c4c(c13)CCC4=O)[C@H]1[C@@H](O2)O[C@@H]2O[C@@H]21
mutagenic call (Strain/Indicator: TA98, Metabolic Activation: NONE, Method: PREINCUBATION): active; positive | mutagenic call (Strain/Indicator: TA98, Metabolic Activation: RAT, LIVER, S-9, AROCLOR 1254, Method: PREINCUBATION): active; positive | mutagenic call (Strain/Indicator: TA100, Metabolic Activation: NONE, Method: MICROSUSPENSION): active; positive | mutagenic call (Strain/Indicator: TA100, Metabolic Activation: NONE, Method: PREINCUBATION): active; positive | mutagenic call (Strain/Indicator: TA100, Metabolic Activation: RAT, LIVER, S-9, AROCLOR 1254, Method: MICROSUSPENSION): active; positive | mutagenic call (Strain/Indicator: TA100, Metabolic Activation: RAT, LIVER, S-9, AROCLOR 1254, Method: PREINCUBATION): active; positive

Cc1cc2cc3ccccc3c3ccc4cccc1c4c23
mutagenic call (Strain/Indicator: TA100, Metabolic Activation: RAT, INTACT HEPATOCYTES, AROCLOR 1254, Method: PREINCUBATION): active; positive | mutagenic call (Strain/Indicator: TA100, Metabolic Activation: RAT, NADPH-FORTIFIED HOMOGENIZED HEPATOCYTES, AROCLOR 1254, Method: PREINCUBATION): active; positive

Nc1cc(N)c(N=Nc2ccc(S(=O)(=O)O)cc2S(=O)(=O)O)cc1N=Nc1ccc(-c2ccc(N/N=C3\C=CC(=O)C(C(=O)O)=C3)cc2)cc1
mutagenic call (Strain/Indicator: TA98, Metabolic Activation: HAMSTER, LIVER, S-9, Method: PREINCUBATION (PRIVAL METHOD)): active; positive
